Reference: US20140121231A1, “PYRANOPYRIDONE INHIBITORS OF TANKYRASE” (Hoffmann-La Roche, Inc., priority 2012, published 2014)
pIC50: −log10 of the molar value.

Tests used:
[1] = biological target: T1, PARP1 (His6-PARP1, full length) (Homo sapiens, UniProt P09874); experiment: TR-FRET Binding Assay (Example 71), PARP1; details: TR-FRET assay of Example 71 with His6-PARP1
T1 construct: His6-PARP1 (full length) can be substituted for His6-TNKS 1
Method: (§1) μHTS-TNKS-IWR2 TR-FRET Binding Assay (10 μL/well in BD1536-well plate, a single point)
Tankyrase 1 (TNKS1): 184.3 μM=5.2 mg/mL His6-TNKS1, MW=28.2 KDa (construct: 1088-1327, 1266M) in 20 mM Tris pH 8, 150 mM NaCl, 10% glycerol, and 0.5 mM TCEP. Alternatively, His6-tankyrase 2 (construct: 934-1166) (His6-TNKS2) or His6-PARP1 (full length) can be substituted for His6-TNKS 1.
(§2) Assay buffer 1a (AB1a) for TNKS dilution: 50 mM Tris, pH 7.4, 100 mM sodium chloride solution, 1 mM magnesium chloride solution, 1 mM DL-dithiothreitol solution, 0.2 mg/mL bovine serum albumin solution, 0.025% NP-40. Assay buffer 1b (AB 1b) for Biotin-IWR2 dilution: 50 mM Tris, pH 7.4, 100 mM sodium chloride solution, 1 mM magnesium chloride solution, 1 mM DL-dithiothreitol solution, 0.2 mg/mL bovine serum albumin solution, 0.05% NP-40 Assay buffer 1c (AB 1c) for compound dilution: 50 mM Tris, pH 7.4, 100 mM sodium chloride solution, 1 mM magnesium chloride solution, 1 mM DL-dithiothreitol solution, 0.2 mg/mL bovine serum albumin solution Assay buffer 2 (AB2) for Eu/APC: 50 mM Tris, pH 7.4, 100 mM sodium chloride solution, 1 mM magnesium chloride solution, 0.2 mg/mL bovine serum albumin solution
Prepare Biotinylated IWR2 stock solution (3.33× stock) for TOTL and compound wells: 200 nM Biotin-IWR2 in 5% DMSO/AB1b buffer
Prepare BLANK well stock solution: 5% DMSO/AB1b buffer Prepare POSITIVE CONTROL well stock solution (3.33× stock): 200 nM XAV939 in 200 nM Biotin-IWR2/5% DMSO/AB1b buffer Prepare TNKS1 stock solution (5× stock): 300 nM TNKS in AB1a buffer. (Alternatively, use TNKS2 or PARP1 stock solutions.) Prepare Eu/APC stock solution (5× stock): 3.5 nM Eu-SA/50 nM APC-His6Ab in AB2 buffer.
(§3) Add 25 μL/well 1.5% DMSO/AB1c buffer in each compound well to the compound concentration at 74 μM in 8.8% DMSO/AB1c buffer or in the 2 μL DMSO CONTROL wells (BLANK, TOTAL and POSITIVE wells) in the compound plate. Transfer 3 μL/well of above solution (solution 1,2,3) to an empty assay plate (BD1536-well plate) as follows: TOTAL and cpd wells: Solution 1 (Biotin-IWR2): BLANK wells: Solution 2 (No Biotin-IWR2): POSITIVE CONTROL wells: Solution 3 (Biotin-IWR2XAV939) Transfer 3 μL/well of the above diluted compound solutions or compound dilution buffer to the above assay plate. Add 2 μL/well of 300 nM TNKS stock solution (4) to every well in the above assay plate. Centrifuge the assay plate at 2100 rpm for 2 min. Incubate the assay plate at 26° C. for 30 minutes. Add 2 μL/well 3.5 nMEu/50 nM APC solution (5) to every well in the above assay plate. Centrifuge the assay plate at 2100 rpm for 2 min. Incubate the assay plate at 26° C. for 60 min. Read the assay plate immediately at excitation wavelength of 330 nm and emission wavelength of 615 and 665 nM in time resolved fluorescence mode.
. Representative compound data for the PARP1 assay is in TABLE 2 (below) Values are in μM.

tankyrase 2 (His6-TNKS2) = biological target: T2, tankyrase 2 (His6-TNKS2) (Homo sapiens, UniProt Q9H2K2); experiment: μHTS-TNKS-IWR2 TR-FRET Binding Assay (Example 71), TNKS2; details: footnote 1: Tankyrase 1 and 2 inhibition assay in Example 71 (TR-FRET)
T2 construct: His6-tankyrase 2 (construct: 934-1166) (His6-TNKS2)
T2 sequence (Q9H2K2 934-1166): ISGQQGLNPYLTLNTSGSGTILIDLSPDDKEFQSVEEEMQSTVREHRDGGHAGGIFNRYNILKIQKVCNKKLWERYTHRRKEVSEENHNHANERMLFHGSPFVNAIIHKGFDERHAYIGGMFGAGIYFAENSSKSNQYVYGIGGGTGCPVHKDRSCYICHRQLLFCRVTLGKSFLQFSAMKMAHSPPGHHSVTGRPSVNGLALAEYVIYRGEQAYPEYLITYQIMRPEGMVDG
Method: as §1
Biotin-4-((1S,2R,6S,7R)-3,5-Dioxo-4-aza-tricyclo[5.2.1.0*2,6*]dec-8-en-4-yl)-N-(4-methyl-quinolin-8-yl)-benzamide (Biotin-IWR2): 10 mM Biotin-IWR2 stock in DMSO, stored at −20° C. Positive control: 10 mM 2-(4-Trifluoromethyl-phenyl)-3,5,7,8-tetrahydro-thiopyrano[4,3-d]pyrimidin-4-one (XAV939) in DMSO, stored at −20° C.
as §2
as §3, with “Transfer” for “Add 25 μL/well 1.5% DMSO/AB1c buffer in each compound well to the compound concentration at 74 μM in 8.8% DMSO/AB1c buffer or in the 2 μL DMSO CONTROL wells (BLANK, TOTAL and POSITIVE wells) in the compound plate. Transfer”, “min.” for “min. Read the assay plate immediately at excitation wavelength of 330 nm and emission wavelength of 615 and 665 nM in time resolved fluorescence mode.”

Tankyrase 1 (TNKS1) = biological target: T3, Tankyrase 1 (TNKS1) (Homo sapiens, UniProt O95271); experiment: μHTS-TNKS-IWR2 TR-FRET Binding Assay (Example 71), TNKS1
T3 construct: His6-TNKS1, MW=28.2 KDa (construct: 1088-1327, 1266M)
T3 sequence (O95271 1088-1327): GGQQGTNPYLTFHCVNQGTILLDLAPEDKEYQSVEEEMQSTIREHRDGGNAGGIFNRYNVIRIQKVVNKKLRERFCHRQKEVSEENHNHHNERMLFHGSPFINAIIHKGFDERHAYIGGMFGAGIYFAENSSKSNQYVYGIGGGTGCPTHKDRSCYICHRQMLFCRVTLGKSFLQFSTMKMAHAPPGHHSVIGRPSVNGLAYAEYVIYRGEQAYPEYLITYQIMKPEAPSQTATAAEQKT
Method: as §1, §2
as §3, with “Transfer” for “Add 25 μL/well 1.5% DMSO/AB1c buffer in each compound well to the compound concentration at 74 μM in 8.8% DMSO/AB1c buffer or in the 2 μL DMSO CONTROL wells (BLANK, TOTAL and POSITIVE wells) in the compound plate. Transfer”, “min.” for “min. Read the assay plate immediately at excitation wavelength of 330 nm and emission wavelength of 615 and 665 nM in time resolved fluorescence mode.”

T1 sequence (P09874 whole entry, species assumed): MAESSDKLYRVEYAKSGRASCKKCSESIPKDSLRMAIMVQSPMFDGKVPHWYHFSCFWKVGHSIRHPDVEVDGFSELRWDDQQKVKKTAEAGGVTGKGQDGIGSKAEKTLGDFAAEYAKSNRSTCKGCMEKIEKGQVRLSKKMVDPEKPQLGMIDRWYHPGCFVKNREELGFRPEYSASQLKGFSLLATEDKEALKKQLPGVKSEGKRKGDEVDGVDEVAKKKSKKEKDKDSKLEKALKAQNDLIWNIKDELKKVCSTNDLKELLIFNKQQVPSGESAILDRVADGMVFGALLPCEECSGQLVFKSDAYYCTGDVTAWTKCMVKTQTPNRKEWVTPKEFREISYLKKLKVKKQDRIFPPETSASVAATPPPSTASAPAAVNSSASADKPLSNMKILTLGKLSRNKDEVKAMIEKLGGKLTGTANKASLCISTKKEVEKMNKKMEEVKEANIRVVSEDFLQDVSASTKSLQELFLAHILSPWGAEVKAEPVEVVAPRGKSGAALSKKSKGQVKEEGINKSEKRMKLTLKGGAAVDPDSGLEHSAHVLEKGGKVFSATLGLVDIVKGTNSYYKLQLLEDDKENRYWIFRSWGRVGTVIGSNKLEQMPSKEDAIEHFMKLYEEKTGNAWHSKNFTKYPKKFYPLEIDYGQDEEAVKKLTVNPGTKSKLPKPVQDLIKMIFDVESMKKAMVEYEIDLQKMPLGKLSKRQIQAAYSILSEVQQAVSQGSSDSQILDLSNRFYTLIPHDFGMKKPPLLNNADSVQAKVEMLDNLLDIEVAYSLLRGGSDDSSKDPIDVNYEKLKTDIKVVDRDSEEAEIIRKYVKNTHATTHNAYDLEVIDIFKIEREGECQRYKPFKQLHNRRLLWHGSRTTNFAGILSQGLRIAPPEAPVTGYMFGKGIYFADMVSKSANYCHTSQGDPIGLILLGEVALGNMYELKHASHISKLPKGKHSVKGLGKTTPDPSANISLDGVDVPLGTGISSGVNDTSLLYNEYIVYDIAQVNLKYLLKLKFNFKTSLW

Row | pIC50 [1] | pIC50 (tankyrase 2 (His6-TNKS2)) | pIC50 (Tankyrase 1 (TNKS1)) | SMILES
1 | 6.48 | 7.59 | 7.59 | Cc1cncc2c(=O)[nH]c3c(c12)COC(C(C)(C)C)C3 (racemic) [Compound I-58, rac-7-tert-Butyl-4-methyl-5,7,8,9-tetrahydro-6-oxa-2,9-diaza-phenanthren-10-one]
2 | 6.90 | 7.00 | 7.36 | CC(C)(C)OC(=O)N1CCC([C@H]2Cc3[nH]c(=O)c4ccccc4c3CO2)CC1 (single isomer, unassigned) [Compound I-55]
3 | 6.94 | 7.59 | 7.67 | CC(C)(C)OC(=O)N1CCC([C@@H]2Cc3[nH]c(=O)c4ccccc4c3CO2)CC1 (single isomer, unassigned) [Compound I-54]
4 | 7.02 | 7.28 | 7.44 | O=C(C1CC1)N1CCC(C2Cc3[nH]c(=O)c4ccccc4c3CO2)CC1 (racemic) [Compound I-33, rac-2-(1-Cyclopropanecarbonyl-piperidin-4-yl)-1,2,4,10-tetrahydro-3-oxa-10-aza-phenanthren-9-one]
5 | 7.01 | 7.26 | 7.32 | CS(=O)(=O)N1CCC(C2Cc3[nH]c(=O)c4ccccc4c3CO2)CC1 (racemic) [Compound I-26, rac-2-(1-Methanesulfonyl-piperidin-4-yl)-1,2,4,10-tetrahydro-3-oxa-10-aza-phenanthren-9-one]
6 | 5.52 | 7.11 | 6.29 | Cc1ccc2c(=O)[nH]c3c(c2n1)COC(C(C)(C)C)C3 (racemic) [Compound I-49, rac-2-tert-Butyl-6-methyl-1,2,4,10-tetrahydro-3-oxa-5,10-diaza-phenanthren-9-one]
7 | < 4.30 | 7.16 | 7.29 | CC(C)C1Cc2[nH]c(=O)c3cnccc3c2CO1 (racemic) [Compound I-15, rac-7-Isopropyl-5,7,8,9-tetrahydro-6-oxa-2,9-diaza-phenanthren-10-one]
8 | 6.44 | 7.30 | 7.41 | CC(C)(C)OC(=O)N1CCC(C2Cc3[nH]c(=O)c4cccnc4c3CO2)CC1 (stereo not drawn) [Compound I-51, tert-butyl 4-(5-oxo-6 7 8 10-tetrahydropyrano[4 3-h][l 6]naphthyridin-8-yl)piperidine-1-carboxylate]
9 | 7.08 | 7.04 | 7.15 | CC(C)C1Cc2[nH]c(=O)c3sccc3c2CO1 (racemic) [Compound I-5, rac-7-Isopropyl-5,6,7,9-tetrahydro-8-oxa-3-thia-5-aza-cyclopenta[a]naphthalen-4-one]
10 | 7.20 | 5.89 | 6.33 | CC(C)C1Cc2[nH]c(=O)c3ccc(N)cc3c2CO1 (racemic) [Compound I-24, rac-6-Amino-2-isopropyl-1,2,4,10-tetrahydro-3-oxa-10-aza-phenanthren-9-one]
11 | 7.17 | 7.57 | 7.59 | CC(=O)N1CCC(C2Cc3[nH]c(=O)c4ccccc4c3CO2)CC1 (racemic) [Compound I-25, rac-2-(1-Acetyl-piperidin-4-yl)-1,2,4,10-tetrahydro-3-oxa-10-aza-phenanthren-9-one]
12 | 7.24 | 7.13 | 7.36 | CC(C)C1Cc2[nH]c(=O)c3cc(Cl)ccc3c2CO1 (racemic) [Compound I-6, rac-7-Chloro-2-isopropyl-1,2,4,10-tetrahydro-3-oxa-10-aza-phenanthren-9-one]
13 | 6.65 | 7.45 | 7.49 | CC(C)(C)C1Cc2[nH]c(=O)c3sccc3c2CO1 (racemic) [Compound I-40, rac-7-tert-Butyl-5,6,7,9-tetrahydro-8-oxa-3-thia-5-aza-cyclopenta[a]naphthalen-4-one]
14 | 5.72 | 6.75 | 7.09 | CC(C)C1Cc2[nH]c(=O)c3ccsc3c2CO1 (racemic) [Compound I-28, rac-7-Isopropyl-5,6,7,9-tetrahydro-8-oxa-1-thia-5-aza-cyclopenta[a]naphthalen-4-one]
15 | 6.17 | 6.69 | 7.01 | CC(C)C1Cc2[nH]c(=O)c3ccncc3c2CO1 (racemic) [Compound I-14, rac-7-Isopropyl-5,7,8,9-tetrahydro-6-oxa-3,9-diaza-phenanthren-10-one]
16 | 6.98 | 7.35 | 7.45 | O=C(C1CCOCC1)N1CCC(C2Cc3[nH]c(=O)c4ccccc4c3CO2)CC1 (racemic) [Compound I-50, rac-2-[1-(Tetrahydro-pyran-4-carbonyl)-piperidin-4-yl]-1,2,4,10-tetrahydro-3-oxa-10-aza-phenanthren-9-one]
17 | 5.64 | 6.84 | 7.14 | O=c1[nH]c2c(c3ccccc13)COC1(CCCC1)C2 [Compound I-9, 1,5′-Dihydrospiro[cyclopentane-1,3′-pyrano[4,3-c]isoquinolin]-6′(4′H)-one]
18 | 5.46 | 6.74 | 7.07 | CC(C)(C)C1Cc2[nH]c(=O)c3ccncc3c2CO1 (racemic) [Compound I-34, rac-7-tert-Butyl-4a,5,7,8,9,10a-hexahydro-6-oxa-3,9-diaza-phenanthren-10-one]
19 | 7.59 | 7.68 | 7.76 | Cc1cccc2c(=O)[nH]c3c(c12)COC(C1CCN(C(=O)C2(C)CC2)CC1)C3 (racemic) [Compound I-61, rac-5-Methyl-2-[1-(1-methyl-cyclopropanecarbonyl)-piperidin-4-yl]-1,2,4,10-tetrahydro-3-oxa-10-aza-phenanthren-9-one]
20 | 7.43 | 6.99 | 7.50 | O=c1[nH]c2c(c3ccccc13)CO[C@H](C1CCCC1)C2 (single isomer, unassigned) [Compound I-11]
21 | 7.80 | 7.33 | 7.47 | CC(C)(C)OC(=O)N1CCC(C2Cc3[nH]c(=O)c4ccccc4c3CO2)CC1 (racemic) [Compound I-21, rac-4-(9-Oxo-1,4,9,10-tetrahydro-2H-3-oxa-10-aza-phenanthren-2-yl)-piperidine-1-carboxylic acid tert-butyl ester]
22 | < 4.30 | 5.82 | 6.88 | CC(C)(C)C1Cc2[nH]c(=O)c3ccc(C#N)cc3c2CO1 (racemic) [Compound I-56, rac-2-tert-Butyl-9-oxo-1,4,9,10-tetrahydro-2H-3-oxa-10-aza-phenanthrene-6-carbonitrile]
